System: patients with R/R B-cell malignancies
Experiment: phase 1 clinical study: safety, tolerability, DLT, MTD
Type: in vivo
Procedure: A phase 1 study (dose escalation and safety expansion) to determine safety, tolerability, maximum tolerated dose ([…]), and recommended phase 2 dose (RP2D) of Compound 1 in patients with R/R B-cell malignancies was conducted. (Table 6-1A).
Dose-escalation (Part 1) occurs in independent cohorts categorized by patient disease type. These cohorts are continued until a recommended Phase 2 dose (RP2D) is identified, which is then used in corresponding expansion cohorts (Part 2).
Part 1 Monotherapy Ramp-Up Schedule and Dose Finding • 1) Cohort 1A: Cohort 1A consists of patients with relapsed/refractory B-cell non-Hodgkin lymphoma (R/R B-cell NHL) excluding mantle cell lymphoma (MCL). These patients are expected to be at low risk of tumor lysis syndrome (low TLS risk), and are treated with a short ramp-up schedule reaching target dose on Day 3. Patients in this cohort receive escalating doses of Compound 1 monotherapy: 40 mg, 80 mg, 160 mg, 320 mg, and 640 mg (unless adjusted by Safety Monitoring Committee [SMC] recommendation). • 2) Cohort 1B is opened, when ≥1 tolerable dose level of Cohort 1A was determined. It consists of patients with low-tumor-burden R/R CLL/SLL. This cohort pursues dose finding, including evaluation of both ramp-up schedule and target dose. Patients increase the ramp-up dose weekly until the target dose for the cohort is reached. The ramp-up steps is 1 mg, 2 mg, 5 mg, 10 mg, 20 mg, 40 mg, 80 mg, 160 mg, 320 mg, and 640 mg (unless adjusted by SMC recommendation). […]. • 3) Cohort 1C: This Cohort consists of patients with high-tumor-burden R/R chronic lymphocytic leukemia/small lymphocytic lymphoma (R/R CLL/SLL). This cohort will not be dosed until the RP2D for Cohort 1B is established. The objective of this cohort is to confirm, in patients with high-tumor-burden CLL/SLL, the safety of the monotherapy ramp-up schedule and RP2D established in patients with low-tumor-burden CLL/SLL. • 4) Cohort 1D: This Cohort consists of patients with R/R MCL. This cohort will not be dosed until the RP2D for Cohort 1B is established. The objective of this cohort is to confirm, in patients with R/R MCL, the safety of the monotherapy ramp-up schedule and RP2D established in patients with low tumor-burden CLL/SLL. • Cohort 1D′: This Cohort consists of patients with R/R MCL. And, the target dosage are 160 and 320 mg. • 5) Cohort 1E: This Cohort consists of patients with R/R waldenstrom macroglobulinemia (R/R WM). This cohort will not be dosed until the RP2D for Cohort 1B is established. The objective of this cohort is to confirm, in patients with R/R WM, the safety of the monotherapy ramp-up schedule and RP2D established in patients with low tumor-burden CLL/SLL.
All dose cohorts would be reviewed by a safety monitoring committee (SMC) before opening subsequent dose levels or declaring an MTD/RP2D.
The study also includes dose escalation and expansion cohorts for the combination of Compound 1 and Bruton tyrosine kinase (BTK) inhibitor Zanubrutinib in patients with selected B-cell malignancy, such as CLL/SLL and mantle cell lymphoma (MCL). (Table 6-2A). Patients in the combination therapy cohorts receive Zanubrutinib 320 mg daily (160 mg twice a day [BID] or 320 mg once a day [QD]) beginning 8-12 weeks before Compound 1 is introduced. And, the corresponding dose-escalation and expansion are conducted in Part 3 and Part 4):
Dose finding is pursued in Patients with R/R CLL/SLL or R/R MCL who are Bel-2-inhibitor naive and have not progressed on a BTK inhibitor, including evaluation of ramp-up schedule and target dose of Compound 1 when used in combination with Zanubrutinib. The Compound 1 dose vary but the Zanubrutinib dose is fixed at 320 mg/day (160 mg twice daily or 320 mg once daily). The ramp-up dose increases weekly until the target dose for the cohort is reached. […]

[1] = 36 patients, monotherapy N = 25, combination therapy N = 11
[2] = 58 patients, monotherapy n = 32, combination n = 26

SMILES: CC(C)c1ccccc1[C@@H]1CCCN1C1CC2(CCN(c3ccc(C(=O)NS(=O)(=O)c4ccc(NCC5CCC(C)(O)CC5)c([N+](=O)[O-])c4)c(Oc4cnc5[nH]ccc5c4)c3)CC2)C1 (stereo partly drawn) [Compound 1, 2-((1H-pyrrolo[2,3-b]pyridin-5-yl)oxy)-N-((4-((((1r,4r)-4-hydroxy-4-methylcyclohexyl)methyl)amino)-3-nitrophenyl)sulfonyl)-4-(2-((S)-2-(2-isopropylphenyl)pyrrolidin-1-yl)-7-azaspiro[3.5]nonan-7-yl)benzamide]
- AEs, n (%): AEs leading to discontinuation of Compound 1 [1]: 1 n (%)
- AEs, n (%): AEs leading to dose reduction of Compound 1 [1]: 0 n (%)
- AEs, n (%): AEs leading to hold of Compound 1 [1]: 4 n (%)
- AEs, n (%): Grade ≥3 AEs [1]: 11 n (%)
- AEs, n (%): Serious AEs [1]: 9 n (%)
- AEs, n (%): Total [1]: 22 n (%)
- AEs, n (%): Leading to death (36 patients, monotherapy N = 25, combination therapy N = 11, neither death related to study drug): 2 n (%)
- Diarrhea, All Grade, n (%) [2]: 8 n (%)
- Diarrhea, Grade ≥3, n (%) [2]: 0 n (%)
- Fatigue, All Grade, n (%) [2]: 8 n (%)
- Fatigue, Grade ≥3, n (%) [2]: 0 n (%)
- Headache, All Grade, n (%) [2]: 5 n (%)
- Headache, Grade ≥3, n (%) [2]: 0 n (%)
- Nausea, All Grade, n (%) [2]: 12 n (%)
- Nausea, Grade ≥3, n (%) [2]: 0 n (%)
- DLTs (Cohort 1A NHL, monotherapy, 40-mg (n=3), 80-mg (n=4) and 320-mg (n=3) dose cohorts): no disease-limiting toxicities (DLTs)
- DLTs (Cohort 1A NHL, monotherapy, 160-mg (n=3+1) dose cohort): one DLT of grade 3 febrile neutropenia
- MTD (Cohort 1A NHL, monotherapy, all dose cohorts completed): no MTD reached through 640 mg
- DLTs (Cohort 1B R/R CLL, monotherapy, 80 mg target dose level (n=4)): one DLT of grade 4 neutropenia
- patients with grade ≥3 neutropenia (monotherapy): 5 patients
- patients with neutropenia (monotherapy): 6 patients
- Abdominal Pain, All Grade, n (%) (monotherapy n = 32): 4 n (%)
- Abdominal Pain, Grade ≥3, n (%) (monotherapy n = 32): 2 n (%)
- Constipation, All Grade, n (%) (monotherapy n = 32): 5 n (%)
- Constipation, Grade ≥3, n (%) (monotherapy n = 32): 0 n (%)
- Dizziness, All Grade, n (%) (monotherapy n = 32): 5 n (%)
- Dizziness, Grade ≥3, n (%) (monotherapy n = 32): 0 n (%)
- Fall, All Grade, n (%) (monotherapy n = 32): 5 n (%)
- Fall, Grade ≥3, n (%) (monotherapy n = 32): 2 n (%)
- Neutropenia, All Grade, n (%) (monotherapy n = 32): 8 n (%)
- Neutropenia, Grade ≥3, n (%) (monotherapy n = 32): 6 n (%)
- Oedema peripheral, All Grade, n (%) (monotherapy n = 32): 4 n (%)
- Oedema peripheral, Grade ≥3, n (%) (monotherapy n = 32): 0 n (%)
- Pyrexia, All Grade, n (%) (monotherapy n = 32): 6 n (%)
- Pyrexia, Grade ≥3, n (%) (monotherapy n = 32): 1 n (%)
- Thrombocytopenia, All Grade, n (%) (monotherapy n = 32): 4 n (%)
- Thrombocytopenia, Grade ≥3, n (%) (monotherapy n = 32): 2 n (%)
- Urinary tract infection, All Grade, n (%) (monotherapy n = 32): 4 n (%)
- Urinary tract infection, Grade ≥3, n (%) (monotherapy n = 32): 0 n (%)
- laboratory TLS (monotherapy, one high-risk patient with CLL, resolved with no intervention): < 2%
- tolerable dose (result of 58 patients, monotherapy or in combination with Zanubrutinib, MTD not yet reached): ≤ 640 mg
